Measurements published in paper PMC4858212, “Production of the Ramoplanin Activity Analogue by Double Gene Inactivation” (PLoS ONE, 2016).
In brackets after ≈: the same amount, converted by molar mass. Where two headings read alike, the source gives them in different places. Numbered stars: 1 amine (or outer) side, 2 acyl side, 3 side chain; on linkers, the order of the positions; unused ones are H or OH. Bridge positions count the residues as written; N and C are the ends. Square brackets hold non-standard residues; d marks the D form. Peptide text beside a SMILES is read from it. * marks the point of attachment. Hpg(αMan(1-2)αMan) = N[C@H](C(=O)O)c1ccc(O[C@H]2O[C@H](CO)[C@@H](O)[C@H](O)[C@@H]2O[C@H]2O[C@H](CO)[C@@H](O)[C@H](O)[C@@H]2O)cc1; Octa(2Z,4E)dienoyl(7-Me) = CC(C)C/C=C/C=C\C(=O)*; X1 = NC(=O)[C@@H](O[*:3])[C@H](N[*:1])C(=O)[*:2]; Hpg(3-Cl) = N[C@H](C(=O)O)c1ccc(O)c(Cl)c1; d(aThr) = C[C@@H](O)[C@@H](N)C(=O)O; dHpg = N[C@@H](C(=O)O)c1ccc(O)cc1; Hpg = N[C@H](C(=O)O)c1ccc(O)cc1; aThr = C[C@H](O)[C@H](N)C(=O)O; dOrn = NCCC[C@@H](N)C(=O)O

Key:
[1] = test system: Staphylococcus aureus ATCC25923
Protocol: (§1) The activies of ramoplanin and its analogs against MRSA and VRE were determined using a liquid microdilution method. MIC values were detected according to the CLSI guidelines. ATCC 25923 (methicillin-sensitive Staphylococcus aureus, MSSA), ATCC 43300 (methicillin-resistant Staphylococcus aureus, MRSA), ATCC 29212 (Enterococcus faecalis) and ATCC 51299 (vancomycin-resistant Enterococcus faecalis, VRE) were employed in this study. Ramoplanin and its analogs were dissolved in 30% methyl alcohol, which was also used as the negative control during the serial tests.
(§2) Antibacterial activities of purified deschlororamoplanin A2 aglycone were compared with ramoplanin A2 and ramoplanin A2 aglycone. The MICs of ramoplanin A2, ramoplanin A2 aglycone and deschlororamoplanin A2 aglycone against ATCC 25923 (methicillin-sensitive Staphylococcus aureus, MSSA), ATCC 43300 (methicillin-resistant Staphylococcus aureus, MRSA), ATCC 29212 (Enterococcus faecalis) and ATCC 51299 (vancomycin-resistant Enterococcus faecalis, VRE) were determined.

[2] = test system: Enterococcus faecalis ATCC29212
Protocol: as §1, §2

[3] = test system: Enterococcus faecalis ATCC51299
Protocol: as §1, §2

[4] = test system: Staphylococcus aureus ATCC43300
Protocol: as §1, §2

Compound | MIC ([1]; ATCC25923) [µg/mL] | MIC ([2]; ATCC29212) [µg/mL] | MIC ([3]; ATCC51299) [µg/mL] | MIC ([4]; ATCC43300) [µg/mL] | MIC ([1]; Staphylococcus aureus ATCC25923 (methicillin-sensitive, MSSA), liquid microdilution, CLSI guidelines, compounds dissolved in 30% methyl alcohol) [µg/mL] | MIC ([2]; Enterococcus faecalis ATCC29212, liquid microdilution, CLSI guidelines, compounds dissolved in 30% methyl alcohol) [µg/mL] | MIC ([3]; Enterococcus faecalis ATCC51299 (vancomycin-resistant, VRE), liquid microdilution, CLSI guidelines, compounds dissolved in 30% methyl alcohol) [µg/mL] | MIC ([4]; Staphylococcus aureus ATCC43300 (methicillin-resistant, MRSA), liquid microdilution, CLSI guidelines, compounds dissolved in 30% methyl alcohol) [µg/mL]
CC(C)C/C=C/C=C\C(=O)N[C@@H](CC(N)=O)C(=O)N[C@@H]1C(=O)N[C@H](c2ccc(O)cc2)C(=O)N[C@H](CCCN)C(=O)N[C@H]([C@@H](C)O)C(=O)N[C@@H](c2ccc(O)cc2)C(=O)N[C@H](c2ccc(O)cc2)C(=O)N[C@@H]([C@H](C)O)C(=O)N[C@@H](Cc2ccccc2)C(=O)N[C@H](CCCN)C(=O)N[C@@H](c2ccc(O)cc2)C(=O)N[C@H]([C@@H](C)O)C(=O)N[C@@H](c2ccc(O)cc2)C(=O)NCC(=O)N[C@@H](CC(C)C)C(=O)N[C@H](C)C(=O)N[C@@H](c2ccc(O)c(Cl)c2)C(=O)O[C@@H]1C(N)=O [Ramoplanin A2 aglycone] ({Octa(2Z,4E)dienoyl(7-Me)}-N[X1][dHpg][dOrn][d(aThr)][Hpg][dHpg][aThr]F[dOrn][Hpg][d(aThr)][Hpg]GL[dA][Hpg(3-Cl)]; ester 2-C) | 2 (≈ 0.897 µM) | 0.5 (≈ 0.224 µM) | 1 (≈ 0.448 µM) | 2 (≈ 0.897 µM) |  |  |  | 
CC(C)C/C=C/C=C\C(=O)N[C@@H](CC(N)=O)C(=O)N[C@@H]1C(=O)N[C@H](c2ccc(O)cc2)C(=O)N[C@H](CCCN)C(=O)N[C@H]([C@@H](C)O)C(=O)N[C@@H](c2ccc(O)cc2)C(=O)N[C@H](c2ccc(O)cc2)C(=O)N[C@@H]([C@H](C)O)C(=O)N[C@@H](Cc2ccccc2)C(=O)N[C@H](CCCN)C(=O)N[C@@H](c2ccc(O[C@H]3O[C@H](CO)[C@@H](O)[C@H](O)[C@@H]3O[C@H]3O[C@H](CO)[C@@H](O)[C@H](O)[C@@H]3O)cc2)C(=O)N[C@H]([C@@H](C)O)C(=O)N[C@@H](c2ccc(O)cc2)C(=O)NCC(=O)N[C@@H](CC(C)C)C(=O)N[C@H](C)C(=O)N[C@@H](c2ccc(O)cc2)C(=O)O[C@@H]1C(N)=O [Deschlororamoplanin A2] ({Octa(2Z,4E)dienoyl(7-Me)}-N[X1][dHpg][dOrn][d(aThr)][Hpg][dHpg][aThr]F[dOrn][Hpg(αMan(1-2)αMan)][d(aThr)][Hpg]GL[dA][Hpg]; ester 2-C) | 2 (≈ 0.794 µM) | 1 (≈ 0.397 µM) | 1 (≈ 0.397 µM) | 2 (≈ 0.794 µM) |  |  |  | 
CC(C)C/C=C/C=C\C(=O)N[C@@H](CC(N)=O)C(=O)N[C@@H]1C(=O)N[C@H](c2ccc(O)cc2)C(=O)N[C@H](CCCN)C(=O)N[C@H]([C@@H](C)O)C(=O)N[C@@H](c2ccc(O)cc2)C(=O)N[C@H](c2ccc(O)cc2)C(=O)N[C@@H]([C@H](C)O)C(=O)N[C@@H](Cc2ccccc2)C(=O)N[C@H](CCCN)C(=O)N[C@@H](c2ccc(O[C@H]3O[C@H](CO)[C@@H](O)[C@H](O)[C@@H]3O[C@H]3O[C@H](CO)[C@@H](O)[C@H](O)[C@@H]3O)cc2)C(=O)N[C@H]([C@@H](C)O)C(=O)N[C@@H](c2ccc(O)cc2)C(=O)NCC(=O)N[C@@H](CC(C)C)C(=O)N[C@H](C)C(=O)N[C@@H](c2ccc(O)c(Cl)c2)C(=O)O[C@@H]1C(N)=O [Ramoplanin A2] ({Octa(2Z,4E)dienoyl(7-Me)}-N[X1][dHpg][dOrn][d(aThr)][Hpg][dHpg][aThr]F[dOrn][Hpg(αMan(1-2)αMan)][d(aThr)][Hpg]GL[dA][Hpg(3-Cl)]; ester 2-C) | 2 (≈ 0.783 µM) | 1 (≈ 0.392 µM) | 1 (≈ 0.392 µM) | 4 (≈ 1.57 µM) |  |  |  | 
Enduracidin |  |  |  |  | 8 | 8 | 8 | 8
CC(C)C/C=C/C=C\C(=O)N[C@@H](CC(N)=O)C(=O)N[C@@H]1C(=O)N[C@H](c2ccc(O)cc2)C(=O)N[C@H](CCCN)C(=O)N[C@H]([C@@H](C)O)C(=O)N[C@@H](c2ccc(O)cc2)C(=O)N[C@H](c2ccc(O)cc2)C(=O)N[C@@H]([C@H](C)O)C(=O)N[C@@H](Cc2ccccc2)C(=O)N[C@H](CCCN)C(=O)N[C@@H](c2ccc(O)cc2)C(=O)N[C@H]([C@@H](C)O)C(=O)N[C@@H](c2ccc(O)cc2)C(=O)NCC(=O)N[C@@H](CC(C)C)C(=O)N[C@H](C)C(=O)N[C@@H](c2ccc(O)cc2)C(=O)O[C@@H]1C(N)=O [Deschlororamoplanin A2 aglycone] ({Octa(2Z,4E)dienoyl(7-Me)}-N[X1][dHpg][dOrn][d(aThr)][Hpg][dHpg][aThr]F[dOrn][Hpg][d(aThr)][Hpg]GL[dA][Hpg]; ester 2-C) | 2 (≈ 0.911 µM) | 1 (≈ 0.456 µM) | 1 (≈ 0.456 µM) | 4 (≈ 1.82 µM) |  |  |  | 
